Data: article PMC10709440, “High-throughput ligand profile characterization in novel cell lines expressing seven heterologous insect olfactory receptors for the detection of volatile plant biomarkers” (Scientific Reports, 2023)

Legend:
Experiment in all cases: cell-based
Parameters in all cases: GCaMP6 calcium fluorescence in stable HEK293 OR+ORCO lines; peak dF normalised to 50 uM VUAA1 (=1)
Drosophila OR71a = target: T1, Drosophila OR71a (Drosophila melanogaster, UniProt Q9VUK5); conditions: HEK293; relative to 50 uM VUAA1 response; below 0.05 set to 0; read-out: % activation
T1 construct: expressed in transfected cells
T1 sequence (Q9VUK5 1-378): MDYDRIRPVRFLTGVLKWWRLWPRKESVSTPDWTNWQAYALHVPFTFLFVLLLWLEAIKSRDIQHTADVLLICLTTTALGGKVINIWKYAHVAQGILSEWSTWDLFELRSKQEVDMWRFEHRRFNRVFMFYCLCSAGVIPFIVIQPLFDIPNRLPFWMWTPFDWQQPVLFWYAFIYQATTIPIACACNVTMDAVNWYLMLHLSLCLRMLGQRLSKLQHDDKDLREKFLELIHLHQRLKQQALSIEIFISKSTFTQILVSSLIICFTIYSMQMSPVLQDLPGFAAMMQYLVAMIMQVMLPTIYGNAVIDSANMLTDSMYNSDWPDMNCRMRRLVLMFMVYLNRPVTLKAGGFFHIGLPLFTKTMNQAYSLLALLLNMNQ
T1 sequence (Q9VNB5 1-486 partner): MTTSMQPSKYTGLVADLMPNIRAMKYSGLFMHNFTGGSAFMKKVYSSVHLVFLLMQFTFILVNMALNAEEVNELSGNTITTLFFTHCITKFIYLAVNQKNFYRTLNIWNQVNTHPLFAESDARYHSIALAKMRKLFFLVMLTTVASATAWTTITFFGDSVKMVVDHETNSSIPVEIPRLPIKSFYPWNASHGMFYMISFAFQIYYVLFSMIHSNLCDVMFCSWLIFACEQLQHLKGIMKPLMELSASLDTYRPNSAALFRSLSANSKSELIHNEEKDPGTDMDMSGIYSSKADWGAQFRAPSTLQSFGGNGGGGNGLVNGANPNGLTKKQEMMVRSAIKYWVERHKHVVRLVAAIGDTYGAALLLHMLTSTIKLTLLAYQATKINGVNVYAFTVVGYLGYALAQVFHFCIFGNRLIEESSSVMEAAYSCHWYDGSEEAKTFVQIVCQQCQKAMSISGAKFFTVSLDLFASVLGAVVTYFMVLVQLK
Procedure: (§1) Twelve thousand to 18,000 cells were plated into each well of a black wall, transparent bottom 384-well microplate (Greiner) 48 h or 72 h before the measurements and were simultaneously treated with 1 μg/mL doxycycline. […] The plate has 24 columns, thus we could record responses in up to eight different cell lines in each plate. On the day of the experiment, the growth medium was replaced with 20 µL assay buffer/well (140 mM NaCl, 5 mM KCl, 2 mM CaCl2, 1 mM MgCl2, 5 mM HEPES-Na, 20 mM glucose, pH 7.3, 340 mOsm). […] Baseline fluorescence (F0) was recorded for 5 s, after which 7 µL VOC buffer (140 mM NaCl, 5 mM KCl, 2 mM CaCl2, 1 mM MgCl2, 5 mM HEPES-Na, 31 mM glucose, 0.1% DMSO, pH 7.3, 340 mOsm) was injected into each well in one row and the fluorescence response was recorded for an additional 30 s, at a rate of one read/sec. VOC solutions (VOC buffer with 4× concentration of the final measured VOC concentration, 9 µL/well was injected) were measured on the same wells in a second round with the same protocol. Each individual concentration of a specific VOC sample was recorded in three wells for the same cell line on the same microplate. The raw data were exported in xls file format, F0 and FMAX values, and the fluorescence intensity changes (∆F) were calculated in Excel (Microsoft) (Supplementary file Data summary.xlsx) using the following equation: ΔF=FMAX-F0/F0 (see also Fig. 1C). On each plate, we recorded the response of each cell line to 50 µM VUAA1. The average of these ∆F values of each cell line were used to calculate the VUAA1-normalized values for the rest of the plate, by dividing VOC response ∆F values by the average VUAA1 response ∆F value of the corresponding OR cell line. Each VOC-OR combination was measured three times as tec The recorded FMAX, F0, ∆F, VUAA1-normalized ∆F values, as well as the OR name, the name of the tested sample, and the final concentration for each well were copied into supplementary file Data summary.xlsx, that was used to summarize all the plates recorded. Here, the averages of the measurements were calculated for each receptor-VOC-concentration combination. […] Each VOC was measured at 1, 10, and 100 µM final concentration on each receptor. VUAA1-normalized response was calculated as described in methods.

Drosophila OR47a = target: T2, Drosophila OR47a (Drosophila melanogaster, UniProt P81921); conditions: relative to 50 uM VUAA1 response, below 0.05 set to 0; for activity at 1 µM / activity at 10 µM / activity at 100 µM: HEK293, read-out: % activation; for % activation: 10 µM, agonist, 10 / OR47a
T2 construct: expressed in transfected cells
T2 sequence (P81921 1-385): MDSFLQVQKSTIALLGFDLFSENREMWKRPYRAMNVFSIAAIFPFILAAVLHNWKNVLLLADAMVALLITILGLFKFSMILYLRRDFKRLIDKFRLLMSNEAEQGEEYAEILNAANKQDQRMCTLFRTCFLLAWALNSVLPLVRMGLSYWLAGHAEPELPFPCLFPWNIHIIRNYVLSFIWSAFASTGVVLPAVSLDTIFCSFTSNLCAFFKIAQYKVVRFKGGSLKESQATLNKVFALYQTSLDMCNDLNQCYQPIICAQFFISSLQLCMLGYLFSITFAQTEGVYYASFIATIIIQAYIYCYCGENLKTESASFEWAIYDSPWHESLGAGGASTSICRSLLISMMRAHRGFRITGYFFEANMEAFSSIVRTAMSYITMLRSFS
T2 sequence (Q9VNB5 1-486 partner): T1 sequence (Q9VNB5 1-486 partner)
Procedure: as §1

Drosophila OR13a = target: T3, Drosophila OR13a (Drosophila melanogaster, UniProt Q9VXL0); conditions: HEK293; relative to 50 uM VUAA1 response; below 0.05 set to 0; read-out: % activation
T3 construct: expressed in transfected cells
T3 sequence (Q9VXL0 1-418): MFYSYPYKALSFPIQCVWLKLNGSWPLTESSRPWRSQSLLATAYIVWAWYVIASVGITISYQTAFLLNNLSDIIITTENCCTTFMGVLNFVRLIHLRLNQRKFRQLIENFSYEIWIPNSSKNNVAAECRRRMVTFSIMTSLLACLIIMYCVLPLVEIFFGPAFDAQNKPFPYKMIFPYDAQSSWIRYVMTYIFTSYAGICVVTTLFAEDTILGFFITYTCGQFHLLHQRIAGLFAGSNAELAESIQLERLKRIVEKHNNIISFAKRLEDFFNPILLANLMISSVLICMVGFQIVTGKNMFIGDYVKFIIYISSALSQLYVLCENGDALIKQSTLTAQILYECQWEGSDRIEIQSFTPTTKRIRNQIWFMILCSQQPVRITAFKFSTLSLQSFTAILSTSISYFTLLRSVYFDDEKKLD
T3 sequence (Q9VNB5 1-486 partner): T1 sequence (Q9VNB5 1-486 partner)
Procedure: as §1

| SMILES | activity at 100 µM (Drosophila OR71a) [%] | activity at 1 µM (Drosophila OR47a) [%] | activity at 10 µM (Drosophila OR47a) [%] | activity at 100 µM (Drosophila OR47a) [%] | activity at 1 µM (Drosophila OR13a) [%] | activity at 10 µM (Drosophila OR13a) [%] | activity at 100 µM (Drosophila OR13a) [%] | activity at 1 µM (Drosophila OR71a) [%] | activity at 10 µM (Drosophila OR71a) [%] | % activation (Drosophila OR47a) [%] |
| --- | --- | --- | --- | --- | --- | --- | --- | --- | --- | --- |
| CCCCCOC(C)=O [pentyl acetate] | 8.7 | – | – | – | – | – | – | – | – | – |
| C=C1CC[C@@]23C[C@@H]1C(C)(C)[C@@H]2CC[C@H]3C [(+)-beta-cedrene] | 0 | 0 | 0 | 0 | 0 | 0 | 0 | 0 | 0 | – |
| COC(=O)c1ccccc1O [methyl salicylate] | 11.5 | – | – | – | – | – | – | – | – | – |
| C=C(C)[C@H]1CC=C(C)CC1 [(R)-(+)-limonene] | 0 | 0 | – | 0 | 0 | 0 | 0 | 0 | 0 | 0.05286 |
| COC(=O)c1ccccc1 [methyl benzoate] | – | – | – | 5.95 | – | – | – | – | – | – |
| Cc1ccc(C)cc1 [p-xylene] | – | – | – | – | – | – | – | – | 6.15 | – |
| C=C(C)[C@H]1CC=C(C)CC1 [limonene] | – | – | – | – | – | – | – | – | – | 0 |
| C=C(C)C1CCC2(C)OC2C1 (single isomer, unassigned; (+)) [(+)-limonene oxide] | 0 | 0 | 0 | 0 | 0 | 0 | 0 | 0 | 0 | – |
| C=C1[C@H]2CC[C@@H]3[C@H]2C(C)(C)CCC[C@]13C [(+)-longifolene] | 0 | 0 | 0 | 0 | 0 | 0 | 0 | 0 | 0 | – |
| OCCc1ccccc1 [phenethyl alcohol] | – | 5.64 | 6.44 | 5.7 | – | – | – | 8.62 | – | – |
